Reference: PubChem BioAssay AID328 (DTP/NCI, 2004)
Values joined by “and” are separate entries in the source; they are usually repeats but may differ in a detail not shown here. Equal entries are not always repeated. Toxic doses and inconclusive results are not listed.

System: BDF1 mice, P388 leukemia ip, median survival T/C
Assay: NCI In Vivo Anticancer Drug Screen. Data for tumor model P388 Leukemia (intraperitoneal) in B6D2F1 (BDF1) mice
Settings: endpoint: median survival time, higher = longer survival
Outline: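 Read-out is survival of treated animals expressed relative to the vehicle group, as a T/C ratio.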

[1] = dose: 25.0 mg/kg/injection, schedule: Q01DX009 (ip), vehicle: saline with Tween-80
[2] = dose: 100.0 mg/kg/injection, schedule: Q04DX003 (ip), vehicle: Klucel (hydroxypropylcellulose) (HPC)
[3] = dose: 200.0 mg/kg/injection, schedule: Q04DX003 (ip), vehicle: Klucel (hydroxypropylcellulose) (HPC)
[4] = dose: 50.0 mg/kg/injection, schedule: Q01DX009 (ip), vehicle: saline with Tween-80
[5] = dose: 10.0 mg/kg/injection, schedule: Q01DX009 (ip), vehicle: saline
[6] = dose: 20.0 mg/kg/injection, schedule: Q01DX009 (ip), vehicle: saline

Question: With `CN(C)c1ccc(N=C2C=CC(=O)C=C2)cc1` as the molecule, how does the T/C (dose: 3.13 mg/kg/injection, schedule: Q01DX009 (ip), vehicle: saline with Tween-80) read?
Answer: 107 % of control

Question: And the T/C (dose: 6.25 mg/kg/injection, schedule: Q01DX009 (ip), vehicle: saline with Tween-80)?
Answer: 112 % of control and 117 % of control

Question: What about the T/C (dose: 12.5 mg/kg/injection, schedule: Q01DX009 (ip), vehicle: saline with Tween-80) of the same molecule?
Answer: 110 % of control and 117 % of control

Question: And the T/C [1]?
Answer: 118 % of control

Question: Which T/C (dose: 50.0 mg/kg/injection, schedule: Q04DX003 (ip), vehicle: saline with Tween-80) does the source give for `CC(Cc1ccccc1)C(N)=O` (stereo unspecified) here?
Answer: 105 % of control

Question: What about the T/C (dose: 100.0 mg/kg/injection, schedule: Q04DX003 (ip), vehicle: saline with Tween-80) of the same molecule?
Answer: 98 % of control

Question: And the T/C (dose: 200.0 mg/kg/injection, schedule: Q04DX003 (ip), vehicle: saline with Tween-80)?
Answer: 113 % of control

Question: `CC(CC(=O)O)C(C(=O)O)C(=O)O` (stereo unspecified) was tested. Which T/C (dose: 6.25 mg/kg/injection, schedule: Q04DX003 (ip), vehicle: Klucel (hydroxypropylcellulose) (HPC)) did it give?
Answer: 94 % of control

Question: What about the T/C (dose: 6.25 mg/kg/injection, schedule: Q04DX003 (ip), vehicle: water) of the same molecule?
Answer: 107 % of control

Question: And the T/C (dose: 12.5 mg/kg/injection, schedule: Q01DX009 (ip), vehicle: water)?
Answer: 108 % of control

Question: What about the T/C (dose: 12.5 mg/kg/injection, schedule: Q04DX003 (ip), vehicle: Klucel (hydroxypropylcellulose) (HPC)) of the same molecule?
Answer: 92 % of control

Question: What about the T/C (dose: 12.5 mg/kg/injection, schedule: Q04DX003 (ip), vehicle: water) of the same molecule?
Answer: 95 % of control and 105 % of control

Question: What about the T/C (dose: 25.0 mg/kg/injection, schedule: Q01DX009 (ip), vehicle: water) of the same molecule?
Answer: 107 % of control

Question: And the T/C (dose: 25.0 mg/kg/injection, schedule: Q04DX003 (ip), vehicle: Klucel (hydroxypropylcellulose) (HPC))?
Answer: 92 % of control

Question: What about the T/C (dose: 25.0 mg/kg/injection, schedule: Q04DX003 (ip), vehicle: water) of the same molecule?
Answer: 266 % of control and 94 % of control and 110 % of control

Question: What about the T/C (dose: 50.0 mg/kg/injection, schedule: Q04DX003 (ip), vehicle: Klucel (hydroxypropylcellulose) (HPC)) of the same molecule?
Answer: 90 % of control

Question: What about the T/C (dose: 50.0 mg/kg/injection, schedule: Q04DX003 (ip), vehicle: water) of the same molecule?
Answer: 266 % of control and 95 % of control and 117 % of control

Question: What about the T/C (dose: 100.0 mg/kg/injection, schedule: Q01DX009 (ip), vehicle: water) of the same molecule?
Answer: 100 % of control

Question: What about the T/C [2] of the same molecule?
Answer: 91 % of control

Question: And the T/C (dose: 100.0 mg/kg/injection, schedule: Q04DX003 (ip), vehicle: water)?
Answer: 86 % of control and 95 % of control and 100 % of control

Question: And the T/C (dose: 200.0 mg/kg/injection, schedule: Q01DX009 (ip), vehicle: water)?
Answer: 91 % of control

Question: What about the T/C [3] of the same molecule?
Answer: 90 % of control

Question: What about the T/C (dose: 200.0 mg/kg/injection, schedule: Q04DX003 (ip), vehicle: water) of the same molecule?
Answer: 101 % of control and 111 % of control

Question: And the T/C (dose: 400.0 mg/kg/injection, schedule: Q01DX009 (ip), vehicle: water)?
Answer: 91 % of control

Question: Which T/C (dose: 50.0 mg/kg/injection, schedule: Q01DX010 (ip), vehicle: carboxymethylcellulose (CMC)) does the source give for `COc1c(OC)c(OC)c2c(c1OC)c(=O)c1ccccc1n2C` here?
Answer: 104 % of control

Question: And the T/C (dose: 100.0 mg/kg/injection, schedule: Q01DX010 (ip), vehicle: carboxymethylcellulose (CMC))?
Answer: 122 % of control

Question: Which T/C (dose: 66.0 mg/kg/injection, schedule: Q04DX003 (ip), vehicle: saline with Tween-80) does the source give for `CN=NNc1ccccc1` here?
Answer: 120 % of control

Question: What about the T/C (dose: 75.0 mg/kg/injection, schedule: Q01DX009 (ip), vehicle: other) of the same molecule?
Answer: 118 % of control

Question: What about the T/C (dose: 75.0 mg/kg/injection, schedule: Q04DX003 (ip), vehicle: saline with Tween-80) of the same molecule?
Answer: 120 % of control

Question: What about the T/C (dose: 150.0 mg/kg/injection, schedule: Q04DX003 (ip), vehicle: saline with Tween-80) of the same molecule?
Answer: 100 % of control

Question: And the T/C (dose: 225.0 mg/kg/injection, schedule: Q04DX003 (ip), vehicle: saline with Tween-80)?
Answer: 95 % of control

Question: And the T/C (dose: 300.0 mg/kg/injection, schedule: Q04DX003 (ip), vehicle: saline with Tween-80)?
Answer: 100 % of control

Question: `CCC(C)C(O)C(C(=O)O)C1CCCCC1` (stereo unspecified) was tested. Which T/C (dose: 50.0 mg/kg/injection, schedule: Q01DX005 (ip), vehicle: saline with Tween-80) did it give?
Answer: 100 % of control

Question: What about the T/C (dose: 100.0 mg/kg/injection, schedule: Q01DX005 (ip), vehicle: saline with Tween-80) of the same molecule?
Answer: 95 % of control

Question: What about the T/C (dose: 200.0 mg/kg/injection, schedule: Q01DX005 (ip), vehicle: saline with Tween-80) of the same molecule?
Answer: 86 % of control

Question: Which T/C (dose: 25.0 mg/kg/injection, schedule: Q01DX009 (sc), vehicle: olive oil, sesame oil, peanut oil) does the source give for `CCCP(CCC)c1ccccc1` here?
Answer: 108 % of control

Question: What about the T/C (dose: 50.0 mg/kg/injection, schedule: Q01DX009 (sc), vehicle: olive oil, sesame oil, peanut oil) of the same molecule?
Answer: 95 % of control

Question: And the T/C (dose: 100.0 mg/kg/injection, schedule: Q01DX009 (sc), vehicle: olive oil, sesame oil, peanut oil)?
Answer: 95 % of control

Question: And the T/C (dose: 100.0 mg/kg/injection, schedule: Q04DX003 (sc), vehicle: olive oil, sesame oil, peanut oil)?
Answer: 96 % of control

Question: And the T/C (dose: 200.0 mg/kg/injection, schedule: Q04DX003 (sc), vehicle: olive oil, sesame oil, peanut oil)?
Answer: 96 % of control

Question: And the T/C (dose: 400.0 mg/kg/injection, schedule: Q01DX009 (sc), vehicle: olive oil, sesame oil, peanut oil)?
Answer: 92 % of control

Question: And the T/C (dose: 400.0 mg/kg/injection, schedule: Q04DX003 (sc), vehicle: olive oil, sesame oil, peanut oil)?
Answer: 123 % of control

Question: Which T/C [1] does the source give for `CCOC(=O)C(C#N)C(C(C)=O)C(=O)OCC` (stereo unspecified) here?
Answer: 118 % of control

Question: And the T/C (dose: 25.0 mg/kg/injection, schedule: Q04DX003 (ip), vehicle: saline sonified)?
Answer: 95 % of control

Question: And the T/C [4]?
Answer: 90 % of control

Question: What about the T/C (dose: 50.0 mg/kg/injection, schedule: Q04DX003 (ip), vehicle: saline sonified) of the same molecule?
Answer: 100 % of control

Question: What about the T/C (dose: 100.0 mg/kg/injection, schedule: Q04DX003 (ip), vehicle: saline sonified) of the same molecule?
Answer: 104 % of control

Question: For `O=C(OC1(c2ccccc2)CCC1)c1cc([N+](=O)[O-])cc([N+](=O)[O-])c1`, which T/C (dose: 100.0 mg/kg/injection, schedule: Q01DX001 (ip), vehicle: saline with Tween-80) is on record?
Answer: 97 % of control

Question: And the T/C (dose: 200.0 mg/kg/injection, schedule: Q01DX001 (ip), vehicle: saline with Tween-80)?
Answer: 96 % of control

Question: And the T/C (dose: 400.0 mg/kg/injection, schedule: Q01DX001 (ip), vehicle: saline with Tween-80)?
Answer: 99 % of control

Question: Which T/C (dose: 10.0 mg/kg/injection, schedule: Q01DX009 (ip), vehicle: Klucel (hydroxypropylcellulose) (HPC)) does the source give for `COc1cc2c(c3c1c(=O)c1cc(OC(C)=O)ccc1n3C)C=CC(C)(C)O2` here?
Answer: 100 % of control

Question: What about the T/C (dose: 20.0 mg/kg/injection, schedule: Q01DX009 (ip), vehicle: Klucel (hydroxypropylcellulose) (HPC)) of the same molecule?
Answer: 98 % of control

Question: What about the T/C (dose: 40.0 mg/kg/injection, schedule: Q01DX009 (ip), vehicle: Klucel (hydroxypropylcellulose) (HPC)) of the same molecule?
Answer: 106 % of control

Question: `BrCC1CCCO1` (stereo unspecified) was tested. Which T/C [1] did it give?
Answer: 101 % of control

Question: What about the T/C [4] of the same molecule?
Answer: 110 % of control

Question: `COC(=O)c1sccc1C=O` was tested. Which T/C [2] did it give?
Answer: 96 % of control

Question: And the T/C [3]?
Answer: 96 % of control

Question: And the T/C (dose: 400.0 mg/kg/injection, schedule: Q04DX003 (ip), vehicle: Klucel (hydroxypropylcellulose) (HPC))?
Answer: 92 % of control

Question: For `Cc1nc(N)sc1CCCl`, which T/C [5] is on record?
Answer: 104 % of control

Question: And the T/C [6]?
Answer: 104 % of control

Question: What about the T/C (dose: 40.0 mg/kg/injection, schedule: Q01DX009 (ip), vehicle: saline) of the same molecule?
Answer: 100 % of control

Question: What about the T/C (dose: 80.0 mg/kg/injection, schedule: Q01DX009 (ip), vehicle: saline) of the same molecule?
Answer: 113 % of control

Question: With `CCOC(=O)C1(C(=O)OCC)COC(C)(C)OC1` as the molecule, how does the T/C (dose: 50.0 mg/kg/injection, schedule: Q01DX009 (ip), vehicle: Klucel (hydroxypropylcellulose) (HPC)) read?
Answer: 115 % of control

Question: What about the T/C (dose: 100.0 mg/kg/injection, schedule: Q04DX003 (ip), vehicle: saline) of the same molecule?
Answer: 104 % of control

Question: And the T/C (dose: 175.0 mg/kg/injection, schedule: Q04DX003 (ip), vehicle: saline)?
Answer: 118 % of control

Question: And the T/C (dose: 200.0 mg/kg/injection, schedule: Q01DX009 (ip), vehicle: Klucel (hydroxypropylcellulose) (HPC))?
Answer: 105 % of control

Question: And the T/C (dose: 200.0 mg/kg/injection, schedule: Q04DX003 (ip), vehicle: saline)?
Answer: 100 % of control and 113 % of control

Question: What about the T/C (dose: 265.0 mg/kg/injection, schedule: Q04DX003 (ip), vehicle: saline) of the same molecule?
Answer: 113 % of control

Question: And the T/C (dose: 400.0 mg/kg/injection, schedule: Q01DX009 (ip), vehicle: Klucel (hydroxypropylcellulose) (HPC))?
Answer: 105 % of control

Question: And the T/C (dose: 400.0 mg/kg/injection, schedule: Q04DX003 (ip), vehicle: saline)?
Answer: 113 % of control and 122 % of control

Question: And the T/C (dose: 600.0 mg/kg/injection, schedule: Q04DX003 (ip), vehicle: saline)?
Answer: 109 % of control

Question: Which T/C (dose: 75.0 mg/kg/injection, schedule: Q01DX001 (ip), vehicle: other) does the source give for `Cc1ccc(C)c(NC(=O)c2ccc(Cl)cc2Cl)c1` here?
Answer: 90 % of control

Question: And the T/C (dose: 150.0 mg/kg/injection, schedule: Q01DX001 (ip), vehicle: other)?
Answer: 90 % of control

Question: With `C[N+](C)(C)CCOC(=O)/C=C/c1cnc[nH]1` as the molecule, how does the T/C (dose: 5.0 mg/kg/injection, schedule: Q01DX009 (ip), vehicle: saline) read?
Answer: 97 % of control

Question: What about the T/C [5] of the same molecule?
Answer: 95 % of control

Question: What about the T/C [6] of the same molecule?
Answer: 117 % of control
